For assay [1], the target named is human D2-long dopamine receptor (Homo sapiens (Human), UniProt P14416). The assay can be described thus: Radioligand binding (125I-IABN competition), D2. As to conditions: HEK cell membranes expressing human D2-long. As to the method: (§1) The affinities of the target compounds were determined using radioligand binding experiments. […] Competition curves were modeled for a single site. Data from competition dose-response curves were analyzed using Tablecurve program (Jandel). IC50 values were converted to equilibrium dissociation constants (Ki values) using the Cheng and Prusoff correction.
human D2-long dopamine receptor, sequence (P14416 whole entry): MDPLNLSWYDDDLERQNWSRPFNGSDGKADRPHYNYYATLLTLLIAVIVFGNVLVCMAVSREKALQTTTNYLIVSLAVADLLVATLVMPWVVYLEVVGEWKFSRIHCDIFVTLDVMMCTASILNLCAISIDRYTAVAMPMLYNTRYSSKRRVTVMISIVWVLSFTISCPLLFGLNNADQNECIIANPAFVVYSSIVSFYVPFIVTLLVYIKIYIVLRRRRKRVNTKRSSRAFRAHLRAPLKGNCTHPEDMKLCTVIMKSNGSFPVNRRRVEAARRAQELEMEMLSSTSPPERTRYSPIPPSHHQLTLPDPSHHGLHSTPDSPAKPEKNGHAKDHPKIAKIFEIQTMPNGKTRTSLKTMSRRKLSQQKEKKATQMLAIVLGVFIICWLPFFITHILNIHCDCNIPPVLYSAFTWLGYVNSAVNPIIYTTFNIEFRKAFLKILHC

The target of assay [2] is human D3 dopamine receptor (Homo sapiens (Human), UniProt P35462). Description: Radioligand binding (125I-IABN competition), D3. As to conditions: for Ki: 125I-IABN competition, HEK cell membranes expressing human D3; for D2/D3 (D3 selectivity ratio, D2 Ki/D3 Ki): calculated D2 Ki/D3 Ki. The method, then: as §1
human D3 dopamine receptor, sequence (P35462 whole entry): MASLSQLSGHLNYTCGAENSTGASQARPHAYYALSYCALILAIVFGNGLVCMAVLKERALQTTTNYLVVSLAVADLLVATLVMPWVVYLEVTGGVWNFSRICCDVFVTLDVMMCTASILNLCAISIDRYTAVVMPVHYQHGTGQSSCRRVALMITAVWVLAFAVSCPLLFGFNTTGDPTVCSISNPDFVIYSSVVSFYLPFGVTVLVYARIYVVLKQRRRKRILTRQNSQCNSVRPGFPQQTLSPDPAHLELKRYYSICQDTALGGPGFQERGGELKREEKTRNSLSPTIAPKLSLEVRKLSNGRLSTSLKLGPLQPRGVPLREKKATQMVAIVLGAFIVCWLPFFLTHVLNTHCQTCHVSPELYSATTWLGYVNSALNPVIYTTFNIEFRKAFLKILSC

In assay [1], `CC(C)(C)c1nc(N2CCN(CCCCNC(=O)N3CCN(C4CCCCC4)CC3)CC2)cc(C(F)(F)F)n1` [Compound 69, N-(4-(4-(2-(tert-Butyl)-6-(trifluoromethyl)pyrimidin-4-yl)piperazin-1-yl)butyl)-4-cyclohexylpiperazine-1-carboxamide] yielded a Ki of 215 ± 54.1 nM. Moreover, in assay [2], the affinity corresponds to a Ki of 29.8 ± 3.8 nM and the “D2/D3 (D3 selectivity ratio, D2 Ki/D3 Ki)” value is recorded as 7.

As to `CC(C)(C)c1nc(N2CCN(CCCCNC(=O)N3CCCc4ccccc43)CC2)cc(C(F)(F)F)n1` [Compound 70, N-(4-(4-(2-(tert-Butyl)-6-(trifluoromethyl)pyrimidin-4-yl)piperazin-1-yl)butyl)-3,4-dihydroquinoline-1(2H)-carboxamide], the inhibitory constant (Ki) was 215 ± 36.3 nM in assay [1] and 33.5 ± 8 nM in assay [2]. In addition, the “D2/D3 (D3 selectivity ratio, D2 Ki/D3 Ki)” value in assay [2] is on record as 6.

`CC(C)(C)c1nc(N2CCN(CCCCNC(=O)N3CCc4ccccc43)CC2)cc(C(F)(F)F)n1` [Compound 71, N-(4-(4-(2-(tert-Butyl)-6-(trifluoromethyl)pyrimidin-4-yl)piperazin-1-yl)butyl)indoline-1-carboxamide] returned a Ki in assay [1] of 281 ± 46.5 nM. In assay [2], the Ki turned out to be 27.4 ± 3.8 nM and the “D2/D3 (D3 selectivity ratio, D2 Ki/D3 Ki)” value was 10.

As to `CC(C)(C)c1nc(N2CCN(CCCCNC(=O)N3CCN(Cc4cccc(C#N)c4)CC3)CC2)cc(C(F)(F)F)n1` [Compound 72, N-(4-(4-(2-(tert-Butyl)-6-(trifluoromethyl)pyrimidin-4-yl)piperazin-1-yl)butyl)-4-(3-cyanobenzyl)piperazine-1-carboxamide], the Ki in assay [1] was found to be 820 ± 178 nM. For the same molecule, in assay [2], the Ki amounted to 84.2 ± 20.3 nM and the “D2/D3 (D3 selectivity ratio, D2 Ki/D3 Ki)” value was 10.

In turn, `CC(C)(C)c1nc(N2CCN(CCCCNC(=O)N3CCN(C(c4ccccc4)c4ccc(Cl)cc4)CC3)CC2)cc(C(F)(F)F)n1` (stereo not drawn) [Compound 73, N-(4-(4-(2-(tert-Butyl)-6-(trifluoromethyl)pyrimidin-4-yl)piperazin-1-yl)butyl)-4-((4-chlorophenyl)(phenyl)methyl)piperazine-1-carboxamide] registered an inhibitory constant (Ki) in assay [1] of 990 ± 192 nM. In assay [2], the inhibition constant (Ki) stood at 130 ± 13 nM and the “D2/D3 (D3 selectivity ratio, D2 Ki/D3 Ki)” value is reported as 8.

`CC(C)(C)c1nc(N2CCN(CCCCNC(=O)N3CCN(CC=Cc4ccccc4)CC3)CC2)cc(C(F)(F)F)n1` [Compound 74, N-(4-(4-(2-(tert-Butyl)-6-(trifluoromethyl)pyrimidin-4-yl)piperazin-1-yl)butyl)-4-cinnamylpiperazine-1-carboxamide]: the inhibition constant Ki amounted to 585 ± 72.7 nM in assay [1] and 66.8 ± 16.3 nM in assay [2]. The “D2/D3 (D3 selectivity ratio, D2 Ki/D3 Ki)” value in assay [2] is listed as 9.

As to `CC(C)(C)c1nc(N2CCN(CCCCNC(=O)N3CCC(N4CCCCC4)CC3)CC2)cc(C(F)(F)F)n1` [Compound 75, N-(4-(4-(2-(tert-Butyl)-6-(trifluoromethyl)pyrimidin-4-yl)piperazin-1-yl)butyl)-[1,4′-bipiperidine]-1′-carboxamide], the affinity in assay [1] corresponds to a Ki of 59.3 ± 7.5 nM. In assay [2], the affinity, expressed as Ki, was 9.9 ± 1.7 nM and the “D2/D3 (D3 selectivity ratio, D2 Ki/D3 Ki)” value was 6.

Molecule `CN1CCC(N2CCN(C(=O)NCCCCN3CCN(c4cc(C(F)(F)F)nc(C(C)(C)C)n4)CC3)CC2)CC1` [Compound 76, N-(4-(4-(2-(tert-Butyl)-6-(trifluoromethyl)pyrimidin-4-yl)piperazin-1-yl)butyl)-4-(1-methylpiperidin-4-yl)piperazine-1-carboxamide] came in with a Ki in assay [1] of 125 ± 26.6 nM. In assay [2], the Ki was found to be 18 ± 3 nM and the “D2/D3 (D3 selectivity ratio, D2 Ki/D3 Ki)” value was 7.

Turning to `CC(C)(C)c1nc(N2CCN(CCCCNC(=O)N3CCN(S(=O)(=O)c4ccccc4)CC3)CC2)cc(C(F)(F)F)n1` [Compound 77, N-(4-(4-(2-(tert-Butyl)-6-(trifluoromethyl)pyrimidin-4-yl)piperazin-1-yl)butyl)-4-(phenylsulfonyl)piperazine-1-carboxamide], the affinity in assay [1] corresponds to a Ki of 981 ± 73.9 nM. Further, in assay [2], affinity was put at a Ki of 138 ± 28.8 nM and the “D2/D3 (D3 selectivity ratio, D2 Ki/D3 Ki)” value is listed as 7.

Consider `CC(C)(C)c1cc(N2CCN(CCCCNC(=O)N3CCN(S(=O)(=O)c4ccccc4)CC3)CC2)nc(C(C)(C)C)n1` [Compound 78, N-(4-(4-(2,6-Di-tert-butylpyrimidin-4-yl)piperazin-1-yl)butyl)-4-(phenylsulfonyl)piperazine-1-carboxamide], for which the Ki in assay [1] was 448 ± 75.9 nM; in assay [2], 29 ± 4.8 nM. Further, in assay [2], the “D2/D3 (D3 selectivity ratio, D2 Ki/D3 Ki)” value is on record as 15.

Molecule `CC(C)(C)c1nc(N2CCN(CCCCNC(=O)N3CCC(O)(c4ccc(Cl)cc4)CC3)CC2)cc(C(F)(F)F)n1` [Compound 79, N-(4-(4-(2-(tert-Butyl)-6-(trifluoromethyl)pyrimidin-4-yl)piperazin-1-yl)butyl)-4-(4-chlorophenyl)-4-hydroxypiperidine-1-carboxamide] registered an inhibition constant Ki in assay [1] of 834 ± 133 nM. Further, in assay [2], the Ki turned out to be 51.8 ± 11.4 nM and the “D2/D3 (D3 selectivity ratio, D2 Ki/D3 Ki)” value is 16.

As to `CC(C)(C)c1nc(N2CCN(CCCCNC(=O)N3CCN(C4CC4)CC3c3ccccc3)CC2)cc(C(F)(F)F)n1` (stereo not drawn) [Compound 80, N-(4-(4-(2-(tert-Butyl)-6-(trifluoromethyl)pyrimidin-4-yl)piperazin-1-yl)butyl)-4-cyclopropyl-2-phenylpiperazine-1-carboxamide], the Ki in assay [1] amounted to 863 ± 135 nM; in assay [2] it was 118 ± 20.1 nM. Besides, the “D2/D3 (D3 selectivity ratio, D2 Ki/D3 Ki)” value in assay [2] is recorded as 7.

In turn, `CC(C)(C)c1nc(N2CCN(CCCCNC(=O)N3CCCN(c4ccccc4)CC3)CC2)cc(C(F)(F)F)n1` [Compound 81, N-(4-(4-(2-(tert-Butyl)-6-(trifluoromethyl)pyrimidin-4-yl)piperazin-1-yl)butyl)-4-phenyl-1,4-diazepane-1-carboxamide] registered a Ki in assay [1] of 507 ± 16.6 nM. Also, in assay [2], the Ki was 44.2 ± 8.2 nM and the “D2/D3 (D3 selectivity ratio, D2 Ki/D3 Ki)” value is 11.

In assay [1], `CC(C)(C)c1nc(N2CCN(CCCCNC(=O)N3CCCC(c4ccccc4)CC3)CC2)cc(C(F)(F)F)n1` (stereo not drawn) [Compound 82, N-(4-(4-(2-(tert-Butyl)-6-(trifluoromethyl)pyrimidin-4-yl)piperazin-1-yl)butyl)-4-phenylazepane-1-carboxamide] came in with a Ki of 668 ± 135 nM. Besides, in assay [2], the Ki was found to be 129 ± 21.9 nM and the “D2/D3 (D3 selectivity ratio, D2 Ki/D3 Ki)” value is 5.

As for `O=C(NCCCCN1CCN(c2ccnc3cc(C(F)(F)F)ccc23)CC1)N1CCN(c2ccccc2)CC1` [Compound 83, 4-Phenyl-N-(4-(4-(7-(trifluoromethyl)quinolin-4-yl)piperazin-1-yl)butyl)piperazine-1-carboxamide], the inhibition constant (Ki) in assay [1] was 1550 ± 349 nM. Further, in assay [2], affinity was put at a Ki of 112 ± 19.1 nM and the “D2/D3 (D3 selectivity ratio, D2 Ki/D3 Ki)” value is given as 14.

`O=C(NCCCCN1CCN(c2ccc3ccccc3n2)CC1)N1CCN(c2ccccc2)CC1` [Compound 84, 4-Phenyl-N-(4-(4-(quinolin-2-yl)piperazin-1-yl)butyl)piperazine-1-carboxamide] yielded a Ki in assay [1] of 2610 ± 79.1 nM. For the same molecule, in assay [2], the Ki was 95.7 ± 14.6 nM and the “D2/D3 (D3 selectivity ratio, D2 Ki/D3 Ki)” value is reported as 27.

In turn, `O=C(NCCCCN1CCN(c2ccnc3cc(Cl)ccc23)CC1)N1CCC(c2ccccc2)CC1` [Compound 85, N-(4-(4-(7-Chloroquinolin-4-yl)piperazin-1-yl)butyl)-4-phenylpiperidine-1-carboxamide] came in with a Ki in assay [1] of 2790 ± 942 nM. Further, in assay [2], the inhibitory constant (Ki) amounted to 87.9 ± 22.8 nM and the “D2/D3 (D3 selectivity ratio, D2 Ki/D3 Ki)” value was 32.

Regarding `CC(C)(C)c1cc(N2CCN(CCCCNC(=O)N3CCN(c4ccccc4)CC3)CC2)cc(C(C)(C)C)c1` [Compound 86, N-(4-(4-(3,5-Di-tert-butylphenyl)piperazin-1-yl)butyl)-4-phenylpiperazine-1-carboxamide], the Ki was 1850 ± 197 nM in assay [1] and 110 ± 11.6 nM in assay [2]. Further, the “D2/D3 (D3 selectivity ratio, D2 Ki/D3 Ki)” value in assay [2] was 17.

As to `Cc1nnc2n1CCN(C(=O)NCCCCN1CCN(c3cc(C(F)(F)F)nc(C(C)(C)C)n3)CC1)C2` [Compound 87, N-(4-(4-(2-(tert-Butyl)-6-(trifluoromethyl)pyrimidin-4-yl)piperazin-1-yl)butyl)-3-methyl-5,6-dihydro-[1,2,4]triazolo[4,3-a]pyrazine-7(8H)-carboxamide], the Ki in assay [1] is 382 ± 91 nM; in assay [2], 28.3 ± 5.3 nM. In addition, the “D2/D3 (D3 selectivity ratio, D2 Ki/D3 Ki)” value in assay [2] was 14.

For `Cc1nc(N2CCN(CCCCNC(=O)N3CCn4c(C)nnc4C3)CC2)cc(C(C)(C)C)n1` [Compound 88, N-(4-(4-(6-(tert-Butyl)-2-methylpyrimidin-4-yl)piperazin-1-yl)butyl)-3-methyl-5,6-dihydro-[1,2,4]triazolo[4,3-a]pyrazine-7(8H)-carboxamide], the inhibition constant Ki in assay [1] turned out to be 10500 ± 2240 nM. In assay [2], the Ki turned out to be 668 ± 122 nM and the “D2/D3 (D3 selectivity ratio, D2 Ki/D3 Ki)” value was 16.

Consider `CC(C)(C)c1nc(N2CCN(CCCCNC(=O)N3CCc4[nH]c5ccccc5c4C3)CC2)cc(C(F)(F)F)n1` [Compound 89, N-(4-(4-(2-(tert-Butyl)-6-(trifluoromethyl)pyrimidin-4-yl)piperazin-1-yl)butyl)-3,4-dihydro-1H-pyrido[4,3-b]indole-2(5H)-carboxamide], for which the Ki in assay [1] was determined as 1180 ± 180 nM; in assay [2], 110 ± 21.6 nM. Further, the “D2/D3 (D3 selectivity ratio, D2 Ki/D3 Ki)” value in assay [2] is reported as 11.

In assay [1], `Cc1ccc2[nH]c3c(c2c1)CN(C(=O)NCCCCN1CCN(c2cc(C(F)(F)F)nc(C(C)(C)C)n2)CC1)CC3` [Compound 90, N-(4-(4-(2-(tert-Butyl)-6-(trifluoromethyl)pyrimidin-4-yl)piperazin-1-yl)butyl)-8-methyl-3,4-dihydro-1H-pyrido[4,3-b]indole-2(5H)-carboxamide] yielded an inhibition constant (Ki) of 1340 ± 166 nM. In assay [2], the Ki amounted to 128 ± 30.3 nM and the “D2/D3 (D3 selectivity ratio, D2 Ki/D3 Ki)” value was 10.

`CC(C)(C)c1nc(N2CCN(CCCCNC(=O)N3CCc4[nH]c5ccc(Cl)cc5c4C3)CC2)cc(C(F)(F)F)n1` [Compound 91, N-(4-(4-(2-(tert-Butyl)-6-(trifluoromethyl)pyrimidin-4-yl)piperazin-1-yl)butyl)-8-chloro-3,4-dihydro-1H-pyrido[4,3-b]indole-2(5H)-carboxamide] yielded a Ki in assay [1] of 1210 ± 211 nM. Further, in assay [2], the Ki came out at 200 ± 47.6 nM and the “D2/D3 (D3 selectivity ratio, D2 Ki/D3 Ki)” value is given as 6.

The term Ki denotes a dissociation constant, usually derived from enzyme kinetics or from competition with a known ligand. The low end stands for a stronger hold on the target, the high end for a looser hold on the target.
